Consider 72 compounds from PubChem BioAssay AID179 (DTP/NCI, 2004).

The experiment relates to CEM cells HIV-1 protection, formazan growth assay. The experiment can be described thus: NCI AIDS Antiviral Assay. The following applies: for IC50: measured here: growth of uninfected CEM cells. In a few lines: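 Steps: treat uninfected and HIV-1-infected human CEM cells at five drug levels; quantify growth by soluble formazan; retest any compound reaching 50% protection; classify actives from the retest.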

By EC50 is commonly meant the concentration giving half of the maximal effect. Usually IC50 stands for the concentration that inhibits the measured activity by half.

The source made the active and inactive calls.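 How the source made its calls: active means compounds giving half or more protection of infected cells from virus-caused growth loss, again on retest; inactive means the rest.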 A value given as a limit tells only on which side of the number the result lay.

As for `CCOc1c2c(cc3c1C(=O)c1c(OC)cccc1C3=O)C=C(OC)CC2`, the EC50 is above 25.1 µM and the IC50 was found to be 13.5 µM. With `O=C(c1ccccc1)N1C/C(=N\Nc2ccc(Cl)cc2)c2c([nH]c3ccccc23)C1`, the EC50 is above 9.12 µM and the IC50 is above 9.12 µM. For `COc1ccc(-c2cc3c(c4cc(OC)ccc24)C(=O)OC3=O)cc1`, the EC50 was above 11.2 µM and the IC50 was above 11.2 µM. As to `CN=C1CC2c3cc(OC)c(OC)cc3CCN2C2=C1C(=O)CC(C)(C)C2` (stereo not given), the EC50 was above 200 µM and the 50% inhibitory concentration (IC50) is above 200 µM.

In the case of `O=[N+]([O-])C(=C(Nc1ccccc1)Nc1ccccc1)C(Cl)=C(Cl)Cl`, the EC50 is above 200 µM and the concentration for half-maximal inhibition (IC50) was determined as 17.4 µM. The matching figures for `CC1CN=C(NS(=O)(=O)c2cc(C(=O)Nc3ccc(Cl)cc3)c(Cl)cc2S)NN1` (stereo not given): above 200 µM and 14.8 µM. On to `COc1cc2nncc(Cl)c2cc1OC`, for which the EC50 was above 95.5 µM and the IC50 worked out at 79.4 µM. Taken in the same sequence, the figures for `CC(CC12CCC3(OO1)C(C)(C)CCCC3(C)O2)OC(=O)c1ccccc1` (stereo not given) were above 200 µM and 18.2 µM. Taken in the same sequence, the figures for `Cc1cc(=O)c2c(O)cc3c(c2o1)CC=C(COC1OC(COC2OC(CO)C(O)C(O)C2O)C(O)C(O)C1O)CO3` (stereo not given) were above 417 µM and above 417 µM. For the compound `CCC(C)C(CC)C(=O)NC(N)=O` (stereo not given), the EC50 was above 200 µM and the IC50 was above 200 µM.

Regarding `CCC1C(c2cccc(OC)c2O)c2cc3c(cc2OC1N1CCCC1)OCO3` (stereo not given), the EC50 was above 200 µM and the concentration for half-maximal inhibition (IC50) was 8.51 µM. The matching figures for `C[Si](C)(C)C#C/C(CO)=C(/C#C[Si](C)(C)C)CO`: above 33.9 µM and above 33.9 µM. As for `Cc1cc(C)nc(NS(=O)(=O)c2ccc(Nc3c4ccccc4nc4c(C(=O)N5CCN(CCOS(C)(=O)=O)CC5)ccc(Cl)c34)cc2)n1`, the EC50 is above 30.9 µM and the 50% inhibitory concentration (IC50) is above 30.9 µM. In the case of `N#Cc1nc(Cc2cccs2)oc1N`, the EC50 was above 200 µM and the half-maximal inhibitory concentration (IC50) is above 200 µM. For the compound `ON1CCc2c([nH]c3ccccc23)C1c1ccc(Cl)cc1` (stereo not given), the outcome was inactive. In the case of `O=C1c2ccccc2C(=O)N1CC(CN1C(=O)c2ccccc2C1=O)(C(=O)OCc1ccccc1)C(=O)OCc1ccccc1`, the EC50 is above 200 µM and the IC50 was above 200 µM.

`Cc1nnc(N)nc1/C=C\c1cccs1`: the EC50 was above 200 µM and the IC50 stood at 5.5 µM. As to `CC[C@@H]1NC(C(=O)OC)Cc2c1[nH]c1ccccc21` (stereo not given in full), the outcome was inactive. Consider `COC(=O)/C(=N\N)C(C(=O)C(=O)Nc1nc(=S)[nH][nH]1)c1nc2ccc([N+](=O)[O-])cc2[nH]c1=O` (stereo not given), for which the EC50 is above 75.9 µM and the IC50 was above 75.9 µM. Turning to `CC(=O)NC1C(OCC(=O)N2CCCC2C(=O)NC(CCC(=O)NCCCCCNc2ccc([N+](=O)[O-])c3[nH]c4ccccc4c(=O)c23)C(N)=O)C(O)C(CO)OC1(C)OCc1ccccc1` (stereo not given), the EC50 is above 50.1 µM and the IC50 stood at 1.02 µM.

Turning to `c1ccc(CNC2C(c3ccccc3)=NN(c3ccccc3)C2c2ccccc2)cc1` (stereo not given), the EC50 was above 200 µM and the IC50 is above 200 µM. Consider `CC(C)(C)c1cc(/C=C/C(=O)CC(=O)/C=C/c2cc(C(C)(C)C)c(O)c(C(C)(C)C)c2)cc(C(C)(C)C)c1O`, for which the EC50 is above 200 µM and the 50% inhibitory concentration (IC50) is above 200 µM. For the compound `O=C(O)c1cc(N=Nc2cccc([N+](=O)[O-])c2)ccc1O`, the EC50 is above 200 µM and the IC50 is 67.6 µM. The matching figures for `C[CH2][Sn]([CH2]C)([O]C(=O)c1cccc(F)c1)[O][Sn]([CH2]C)([CH2]C)[O]C(=O)c1cccc(F)c1`: above 5.89 µM and above 5.89 µM. In the case of `Cn1c2ccccc2c(=O)c2[nH]c3ccccc3c21`, the EC50 is above 200 µM and the IC50 was determined as 36.3 µM. Consider `N#Cc1ccc(OCc2nc3cc(C(F)(F)F)ccc3nc2-c2ccccc2)cc1`, for which the EC50 was above 200 µM and the IC50 was 30.2 µM.

Turning to `CC(C)C1CNC(=O)C2(CCCO2)CNC(C(C)C)CNC(=O)C2(CCCO2)CN1` (stereo not given), the EC50 is above 295 µM and the 50% inhibitory concentration (IC50) is above 295 µM. With `N=S(c1ccccc1)c1ccccc1[N+](=O)[O-]` (stereo not given), the EC50 is above 158 µM and the IC50 was found to be 1.7 µM. As for `N#C/C(=C\c1ccc(O)c(O)c1)C(=O)NCCc1ccc(O)c(O)c1`, the EC50 is above 200 µM and the 50% inhibitory concentration (IC50) is 30.9 µM. For the compound `O=C1OCc2cc3cc4c(cc3c(-c3ccc5c(c3)OCO5)c21)OCO4` (tested in a mixture with another compound), the outcome was inactive.

As for `Cc1[nH]c(=O)[nH]c(=O)c1C(=O)O`, the EC50 was above 200 µM and the concentration for half-maximal inhibition (IC50) was above 200 µM. For `Cc1nn2c(=O)[nH]cnc2c1Cl`, the EC50 was above 229 µM and the concentration for half-maximal inhibition (IC50) is above 229 µM.

Regarding `CC(C)OCC(O)COc1ccc2ccc(=O)oc2c1` (stereo not given), the EC50 is above 200 µM and the IC50 was above 200 µM. For `CN(C)CC1CCC(CN(C)C)C(=O)C1=O` (stereo not given), the EC50 was above 200 µM and the IC50 turned out to be 0.49 µM. As for `O=[N+]([O-])c1ccc(CN=C2NNS(=O)(=O)c3ccccc32)cc1`, the concentration giving a half-maximal response (EC50) is above 15.8 µM and the 50% inhibitory concentration (IC50) was above 15.8 µM. As for `CCOC(=O)/C=C/[C@H](O[Si](c1ccccc1)(c1ccccc1)c1ccccc1)C(C)(C)C`, the EC50 is above 200 µM and the IC50 is above 200 µM. In the case of `COc1ccc(/C(C)=N/N=C\c2cc(OC)c(OC)c(OC)c2)cc1`, the EC50 was above 200 µM and the IC50 was above 200 µM. With `O=c1[nH]c(-n2[nH]c3c(c2=O)CCCC3)nc(O)c1-c1ccccc1`, the EC50 is above 200 µM and the IC50 was above 200 µM. Take `NCCCNCCCCNC(=O)C(O)NC(=O)CCCCCCN=C(N)N` (stereo not given): the EC50 is 288 µM and the IC50 is 501 µM. The matching figures for `COc1cc(CC(=O)O)c([N+](=O)[O-])cc1OC`: above 1020 µM and 891 µM.

Turning to `CC(C)Oc1cc2c(c3oc(=O)c4c(c13)CCC4)C(=O)[C@H](C)[C@@H](C)O2`, the EC50 is above 200 µM and the IC50 came out at 39.8 µM. Taken in the same sequence, the figures for `O=C1CCC2(c3ccc(Cl)cc3)Nc3ncncc3N12` (stereo not given) were above 871 µM and 178 µM. `N#C/C(=C/N1C(=O)CC(=O)NC1=S)c1cccc(Cl)c1`: the EC50 was 182 µM and the 50% inhibitory concentration (IC50) was above 200 µM.

`CCCCCOCC(=O)OC`: the EC50 is above 200 µM and the IC50 amounted to 112 µM.

Take `O=[N+]([O-])c1cccc(C2CC(c3ccccc3)=Nc3ccccc3S2)c1` (stereo not given): the EC50 is above 35.5 µM and the IC50 stood at 2.34 µM. For `O=C1CN(N2CCOCC2)CC(=O)N2CCCCN12`, the EC50 was 19.1 µM and the IC50 is above 200 µM. As to `CCC(C)C(=O)c1c(O)c(CC2OC2(C)C)c(O)c2c(C(O)CC)cc(=O)oc12` (stereo not given), the EC50 was above 200 µM and the concentration for half-maximal inhibition (IC50) is 5.62 µM.

As for `COc1nc(NC2OC(COC(C)=O)C(OC(C)=O)C(OC(C)=O)C2OC(C)=O)c2c(n1)OCC2=O` (stereo not given), the outcome was inactive. In the case of `CN(N)/N=N/c1nc[nH]c1C(N)=O`, the EC50 was above 2 µM and the half-inhibitory concentration (IC50) is 1.45 µM. Take `COc1cc2c(c(O)c1O)C(=O)C1CCC(=O)N1C2c1cccc2ccccc12` (stereo not given): the EC50 was above 50.1 µM and the IC50 was found to be 35.5 µM.

With `c1cc[c]([Sn]([O]c2cccc3cccnc23)([O]c2cccc3cccnc23)[c]2ccccc2)cc1`, the outcome was inactive. `O=C1C(=C/C=C2/SC(c3ccccc3)(c3ccccc3)c3ccccc32)C(=O)c2ccccc21`: the EC50 was above 200 µM and the 50% inhibitory concentration (IC50) was above 200 µM. As for `Cc1nn(C)c2c1NC(=O)CS2`, the result was inactive. Regarding `CC(=O)OCC1OC(NC(=S)Nc2nc(-c3ccccc3)cc(-c3cc(Cl)ccc3O)n2)C(OC(C)=O)C(OC(C)=O)C1OC(C)=O` (stereo not given), the EC50 is above 200 µM and the IC50 came to 5.13 µM. The matching figures for `N#C/C(C(=O)Nc1ccccc1)=C(/N)N1CCCC1`: above 200 µM and 174 µM. `CC1=NN(c2ccccc2)C(=O)C1N=Nc1ccc(Br)cc1C` (stereo not given): the EC50 is above 17.4 µM and the IC50 is above 17.4 µM. Turning to `CCSc1ccc(N=[N+]([O-])c2ccc(SCC)c(Cl)c2)cc1Cl`, the EC50 was above 50.1 µM and the IC50 is above 50.1 µM. As for `Cc1nc(Cl)nc2c1C(=O)Nc1ccccc1N2`, the EC50 is above 52.5 µM and the half-maximal inhibitory concentration (IC50) worked out at 26.9 µM. Take `O=C(/C(C=NC(=S)c1ccncc1)=C(/O)C1=CC=CCC1)c1ccccc1`: the outcome was inactive. Turning to `CC1=NC2C(=O)N(C)C(=O)N(C)C2n2c(O)ccc21` (stereo not given), the EC50 is above 2 µM and the concentration for half-maximal inhibition (IC50) is above 2 µM.

For `COc1ccc2nc3cc(Cl)ccc3c(NC(C)CCCN(C)C)c2n1` (stereo not given), the EC50 is above 2 µM and the IC50 amounted to 1.02 µM. The matching figures for `CCP(=O)(CC)C(Cl)Cl`: above 200 µM and above 200 µM. The matching figures for `CC(C)(C)n1[nH]c(=O)n(C(C)(C)C)c1=O`: above 200 µM and above 200 µM. As for `CCN(CC)CCNC(=O)c1ccc(C)c(OCc2ccccc2)c1[N+](=O)[O-]`, the EC50 is above 200 µM and the half-inhibitory concentration (IC50) worked out at 33.9 µM. Taken in the same sequence, the figures for `Oc1ccccc1C=Nc1ccc(SSc2ccc(N=Cc3ccccc3O)cc2)cc1` were above 200 µM and 27.5 µM. Take `COc1ccc(-c2oc3cc(O)cc(O)c3c(=O)c2OC)cc1`: the outcome was inactive. Same read-out and setting: the value for `c1cncc(CN2CCCC2)c1` was “inactive”. Consider `COc1ccc(C(=O)/C=C/c2ccc(OCCCOc3ccc(/C=C/C(=O)c4ccc(OC)c(OC)c4)cc3)cc2)cc1OC`, for which the EC50 is above 200 µM and the half-maximal inhibitory concentration (IC50) is above 200 µM. On to `Nc1nc[n+](Cc2ccccc2CCO)c2nc[nH]c12`, for which the EC50 was above 37.2 µM and the IC50 was above 37.2 µM. Turning to `CCOC(=O)c1c(C)nn2c1ccc1ccccc12`, the EC50 is above 200 µM and the concentration for half-maximal inhibition (IC50) amounted to 110 µM. For `O=[N+]([O-])c1nccn1CCC[n+]1ccc2ccccc2c1`, the EC50 was above 100 µM and the 50% inhibitory concentration (IC50) stood at 74.1 µM. The matching figures for `Cc1nn(C(=O)c2ccccc2O)c2c1C(c1ccc([N+](=O)[O-])cc1)SC(N)=N2` (stereo not given): above 2 µM and 0.389 µM.
